This note sets out measurements from PubChem BioAssay (NCI).

The structures appear in SMILES notation.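 Assay format: 96-well plates, 48-hour exposure. GI50 is the concentration that inhibits growth by half. TGI marks complete inhibition of growth.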

Some test systems named below: SN12C renal; OVCAR-4 ovarian; M14 melanoma; UO-31 renal; OVCAR-3 ovarian; ACHN renal; HT29 colon; SF-268 CNS; A498 renal; SK-OV-3 ovarian.
Common to all, as to test: inhibition of tumour cell growth, NCI panel, 48 h

Consider `O=C1c2ccccc2-c2cccc3ccc(Cc4ccc5ccccc5c4)c1c23`, for which the TGI with SN12C renal, with OVCAR-4 ovarian, in the assay with M14 melanoma, in the assay with UO-31 renal, in the assay with OVCAR-3 ovarian and in the assay with ACHN renal was over 100 µM each time. The TGI with HT29 colon and with SF-268 CNS was over 100 µM in each case.

In the case of `Nc1ccc(N(S(=O)(=O)c2ccccc2)S(=O)(=O)c2ccccc2)c(Cl)c1`, the TGI with SN12C renal, in the assay on OVCAR-4 ovarian, in the assay with M14 melanoma, in the assay with UO-31 renal, in the assay with ACHN renal and in the assay with HT29 colon was over 100 µM each time. Moreover, the TGI is over 100 µM in the assay on SF-268 CNS and 98.2 µM with A498 renal.

For `CC[C@@H]1OC2(C)CC(S(=O)(=O)c3ccccc3O)CC1O2` (some centres undefined), the TGI with SN12C renal, with OVCAR-4 ovarian, in the assay with M14 melanoma, in the assay with UO-31 renal, with OVCAR-3 ovarian and in the assay on ACHN renal was over 100 µM in each case. Besides, the TGI in the assay on SK-OV-3 ovarian and in the assay with SF-268 CNS was over 100 µM in each case.

Take `CCOC(=O)C(N)C[S][Sn]([CH3])([CH3])[Cl]` (centres undefined): the GI50 in the assay on SN12C renal, in the assay with OVCAR-4 ovarian, with M14 melanoma, in the assay on UO-31 renal, in the assay with OVCAR-3 ovarian and with ACHN renal was over 100 µM throughout. Further, the GI50 in the assay with HT29 colon, with SK-OV-3 ovarian and in the assay with SF-268 CNS was over 100 µM in each case. The TGI in the assay with SN12C renal, in the assay on OVCAR-4 ovarian, in the assay with M14 melanoma, in the assay on UO-31 renal, in the assay with OVCAR-3 ovarian and in the assay on ACHN renal was over 100 µM throughout. Further, the TGI in the assay on HT29 colon, in the assay on SK-OV-3 ovarian and with SF-268 CNS was over 100 µM throughout.

Take `COc1ccc(-c2onc(-c3ccc([N+](=O)[O-])cc3)c2C2=NCCN2)cc1`: the TGI with SN12C renal, in the assay on OVCAR-4 ovarian, in the assay with M14 melanoma, with UO-31 renal, in the assay with OVCAR-3 ovarian and in the assay with ACHN renal was over 100 µM in each case. The TGI in the assay with HT29 colon and in the assay on SF-268 CNS was over 100 µM throughout.

Regarding `CC(C)c1ccc(C(=O)Nc2nc3ccc(O)cc3s2)cc1`, the GI50 was 2.18 µM in the assay with SN12C renal; 0.873 µM in the assay on OVCAR-4 ovarian; 0.167 µM in the assay with M14 melanoma; 0.35 µM in the assay on UO-31 renal; 1.36 µM in the assay with OVCAR-3 ovarian; 0.304 µM with ACHN renal. For the same compound, the GI50 in the assay with HT29 colon is 3.38 µM; in the assay with SF-268 CNS it was 4.06 µM; with A498 renal, 2.2 µM. Also, the TGI with SN12C renal was over 100 µM; in the assay with OVCAR-4 ovarian it was 80.2 µM; with M14 melanoma, 46.5 µM; in the assay on UO-31 renal, over 100 µM; in the assay on OVCAR-3 ovarian, 51.4 µM; in the assay with ACHN renal it was over 100 µM. For the same compound, the TGI in the assay on HT29 colon was 17.8 µM; in the assay with SF-268 CNS, over 100 µM; with A498 renal it was 9.91 µM.

With `Cn1c([N+](=O)[O-])cnc1/C=C1\Oc2ccccc2C1=O`, the GI50 was 0.593 µM with SN12C renal; 2.05 µM in the assay on OVCAR-4 ovarian; 0.32 µM with M14 melanoma; 0.309 µM in the assay with UO-31 renal; 0.527 µM in the assay with OVCAR-3 ovarian; 0.197 µM in the assay with ACHN renal. Also, the GI50 in the assay with HT29 colon was 0.203 µM; in the assay on SK-OV-3 ovarian it was 1.62 µM; in the assay on SF-268 CNS, 0.303 µM. Besides, the TGI in the assay on SN12C renal is 2.87 µM; with OVCAR-4 ovarian, 7.45 µM; in the assay with M14 melanoma, 2.51 µM; in the assay on UO-31 renal, 1.71 µM; with OVCAR-3 ovarian, 5.21 µM; in the assay on ACHN renal, 0.632 µM. The TGI with HT29 colon is 0.629 µM; with SK-OV-3 ovarian it was 6.34 µM; in the assay with SF-268 CNS it was 1.66 µM.

For the compound `CC/C(C)=C1\CCC(CN2CCOCC2)C1=O` (centres undefined), the TGI with SN12C renal amounted to 21.7 µM; in the assay with OVCAR-4 ovarian, 31.7 µM; in the assay on M14 melanoma, 31.4 µM; in the assay with UO-31 renal it was 36.6 µM; in the assay on OVCAR-3 ovarian, 29.5 µM; in the assay with ACHN renal, 19.8 µM. Moreover, the TGI in the assay with HT29 colon worked out at 39.9 µM; with SF-268 CNS, 26 µM; in the assay with A498 renal, 39.1 µM.

As to `CC(C)(C#N)c1cc(Cn2cncn2)cc(C(C)(C)C#N)c1`, the GI50 in the assay with SN12C renal was over 10000 µM; in the assay with OVCAR-4 ovarian it was over 10000 µM; with UO-31 renal it was 720 µM; in the assay with OVCAR-3 ovarian, over 10000 µM; in the assay with HT29 colon, 3050 µM; in the assay on SK-OV-3 ovarian it was over 10000 µM. In addition, the GI50 in the assay with SF-268 CNS was over 10000 µM. Further, the TGI in the assay on SN12C renal, in the assay on OVCAR-4 ovarian, in the assay with UO-31 renal, in the assay on OVCAR-3 ovarian, with HT29 colon and in the assay with SK-OV-3 ovarian was over 10000 µM each time. In the assay on SF-268 CNS, the TGI is over 10000 µM.

In the case of `Cc1cc(C)c([O-])c(CN(C)CCN(C)Cc2cc(C)cc(C)c2[O-])c1.O=C([O-])c1cccc(C(=O)[O-])n1.[Ti+4]`, the GI50 in the assay on SN12C renal is 3.69 µM; in the assay with OVCAR-4 ovarian it was 2.87 µM; in the assay with M14 melanoma, 1.7 µM; in the assay on UO-31 renal, 2.26 µM; in the assay on ACHN renal it was 2.43 µM; in the assay with SK-OV-3 ovarian, 3.54 µM. For the same compound, the GI50 is 3.91 µM with SF-268 CNS and 3.72 µM with A498 renal. Further, the TGI with SN12C renal, in the assay on OVCAR-4 ovarian, in the assay with M14 melanoma, in the assay with UO-31 renal, in the assay on ACHN renal and with SK-OV-3 ovarian was over 100 µM each time. The TGI in the assay on SF-268 CNS and in the assay with A498 renal was over 100 µM throughout.

For the compound `Nc1c(C(=O)c2ccc(Cl)cc2)sc(Nc2ccccc2)c1-c1nc2ccccc2s1`, the GI50 was over 20.2 µM in the assay with SN12C renal; 2.65 µM with M14 melanoma; 2.16 µM in the assay on UO-31 renal; 1.61 µM with ACHN renal; 1.99 µM in the assay with SK-OV-3 ovarian; 1.44 µM in the assay on SF-268 CNS. Also, the GI50 with A498 renal is 3.67 µM. The TGI was over 100 µM in the assay with SN12C renal; over 100 µM with M14 melanoma; over 100 µM in the assay with UO-31 renal; over 100 µM with ACHN renal; 19 µM with SK-OV-3 ovarian; over 100 µM in the assay with SF-268 CNS. This compound also gave a TGI in the assay on A498 renal of 19.1 µM.
